Where a SMILES comes first, the peptide text is derived from it. Where no end group is shown, it is not given here.

The data set deals with C28/I2 cells. Nature of the data set: CCK-8 cytotoxicity assay in human-derived chondrocytes. It is filed as cell-based. The following applies: peptide at different concentrations, 3 days, read at 450 nm, FIG. 1 and FIG. 2. The protocol:
The cytotoxicity of Peptide-1 or Peptide-2 upon addition to human-derived chondrocytes (C28/I2, human chondrocyte cell line) was analyzed using a CCK-8 assay.
Specifically, human-derived chondrocytes were seeded in a 96-well plate at a density of 3 × 10^3 cells/well and cultured in DMEM medium (cat. 11995-065, Gibco) for 24 hours. […] Meanwhile, as a negative control group (CON), an experimental group to which the peptide was not added was used.

Regarding `N=C(N)NCCC[C@H](N)C(=O)N[C@@H](Cc1ccc(O)cc1)C(=O)N[C@@H](Cc1ccccc1)C(=O)O` [Peptide-1, Arg(R)-Tyr(Y)-Phe(F)] (H-Arg-Tyr-Phe-OH), the “toxicity in human-derived chondrocytes (CCK-8 activity)” value is given as “did not exhibit toxicity”.

In the case of TAVRVG [Peptide-2], the “toxicity in human-derived chondrocytes (CCK-8 activity)” value is on record as “did not exhibit toxicity”.

Source of the values: EP4631957A1, “PEPTIDE FOR CARTILAGE REGENERATION, AND USES THEREOF” (Caregen Co., Ltd., priority 2022, dated 2024).
